For assay [1], the target named is T1, TDO (Homo sapiens, UniProt P48775). Kind of assay: hTDO biochemical coupled assay. As to conditions: 330 μM L-tryptophan, 17 minutes, room temperature; read-out: hTDO biochemical assay pIC50 (converted).
Assay [2] addresses T2, IDO (Homo sapiens, UniProt P14902). Kind of assay: hIDO biochemical coupled assay. The settings on record: 45 μM L-tryptophan, 17 minutes, room temperature; read-out: hIDO biochemical assay pIC50 (converted).
From the text: Two different assays were employed: 1. a cell-based assay for detecting the effect of test compounds on kynurenine production in two different cancer cell types. This assay utilised cancer cells which expressed either TDO or IDO and as such was used as a means of testing compound activity at these two enzymes in a cell-based context. 2. a TDO and IDO biochemical coupled assay which utilised recombinantly produced and purified TDO and IDO enzymes in combination with the enzyme formamidase. This coupled enzyme system allowed conversion of N-formylkynurenine produced by TDO or IDO activity to kynurenine which was then quantified by fluorescence following addition of Erhlich's Reagent The protocols for these are set out below.
Assay [3] has as its target T1, TDO. As to the kind of experiment: A172 kynurenine cell-based assay. Also on record: This assay utilised cancer cells which expressed either TDO or IDO; endogenous in cells; host or cells: A172 (human glioblastoma). As to conditions: A172 human glioblastoma cells, 48 hours, 500 μM L-tryptophan; read-out: A172 Kynurenine cell based assay pIC50 (converted). The method, boiled down:
(§1)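 Cellular kynurenine production, TDO via A172 glioblastoma and IDO via IFN-γ-stimulated SKOV3 ovarian adenocarcinoma cells, was quantified after 48 hours' compound treatment in 500 μM L-tryptophan medium, using Erhlich's reagent and absorbance at 490 nm.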

For assay [4], the target named is T2, IDO. Kind of assay: SKOV3 kynurenine cell-based assay (IDO induced by IFN-γ). As to conditions: SKOV3 human ovarian adenocarcinoma cells, 500 ng/ml IFN-γ, 48 hours, 500 μM L-tryptophan; read-out: SKOV3 Kynurenine cell based assay pIC50 (converted). Also on record: IDO expression was induced in the SKOV3 cells by the addition of 500 ng/ml IFN-γ; endogenous in cells; host or cells: SKOV3 (human ovarian adenocarcinoma), induced with IFN-γ. The method, boiled down: as §1

T1 sequence (P48775 whole entry): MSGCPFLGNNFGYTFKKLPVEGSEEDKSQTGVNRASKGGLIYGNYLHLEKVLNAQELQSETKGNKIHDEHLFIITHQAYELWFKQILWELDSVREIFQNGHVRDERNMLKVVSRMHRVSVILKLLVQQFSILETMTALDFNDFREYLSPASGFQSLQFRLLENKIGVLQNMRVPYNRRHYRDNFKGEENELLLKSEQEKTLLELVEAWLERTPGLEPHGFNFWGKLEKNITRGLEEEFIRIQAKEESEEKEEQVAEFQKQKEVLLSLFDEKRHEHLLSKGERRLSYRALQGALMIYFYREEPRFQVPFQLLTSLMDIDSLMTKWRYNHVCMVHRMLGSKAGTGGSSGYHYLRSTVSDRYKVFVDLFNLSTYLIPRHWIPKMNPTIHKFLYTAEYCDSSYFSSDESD
T2 sequence (P14902 whole entry): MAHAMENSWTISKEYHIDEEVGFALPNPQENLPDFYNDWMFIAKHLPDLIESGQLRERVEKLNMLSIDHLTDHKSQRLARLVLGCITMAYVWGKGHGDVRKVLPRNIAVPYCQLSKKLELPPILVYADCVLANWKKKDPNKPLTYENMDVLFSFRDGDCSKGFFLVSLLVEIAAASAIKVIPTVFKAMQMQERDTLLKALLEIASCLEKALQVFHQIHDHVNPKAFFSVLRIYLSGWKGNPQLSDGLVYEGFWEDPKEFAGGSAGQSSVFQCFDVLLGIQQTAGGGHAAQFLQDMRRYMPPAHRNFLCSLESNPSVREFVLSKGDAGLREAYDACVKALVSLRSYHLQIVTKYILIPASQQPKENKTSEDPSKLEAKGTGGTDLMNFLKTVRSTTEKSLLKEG

On to `O=C(O)C1CCN(c2cc(Cl)cc3[nH]ncc23)CC1` [Compound 301], for which the IC50 in assay [1] was under 3.16 µM; in assay [2] it was 32.4 to 100 µM; in assay [3] it was 3.24 to 31.6 µM; in assay [4], over 100 µM.
Turning to `CC(=O)N1CCC(c2cc(Cl)cc3[nH]ncc23)CC1(C)C` (stereo not shown) [Compound 400], the IC50 in assay [1], in assay [2], in assay [3] and in assay [4] was under 3.16 µM throughout.
In the case of `CS(=O)(=O)Nc1ccc(C2CCN(c3cc(Cl)cc4[nH]ncc34)CC2)cc1` [Compound 437], the IC50 was under 3.16 µM in assay [1], 3.24 to 31.6 µM in assay [2], under 3.16 µM in assay [3] and under 3.16 µM in assay [4].
For `Cc1nc2c([nH]1)CN(c1cc(Cl)cc3[nH]ncc13)CC2` [Compound 211], the IC50 in assay [1] is under 3.16 µM; in assay [2], 32.4 to 100 µM; in assay [3] it was 3.24 to 31.6 µM; in assay [4], 32.4 to 100 µM.
As to `O=S(=O)(C1CCCC1)N1CCN(c2cccc3[nH]ncc23)CC1` [Compound 17], the IC50 in assay [1] is 3.24 to 31.6 µM; in assay [2] it was over 100 µM; in assay [3], 3.24 to 31.6 µM; in assay [4] it was 32.4 to 100 µM.
Consider `Clc1cc(N2CCC(c3ccccc3)CC2)c2cn[nH]c2c1` [Compound 183], for which the IC50 in assay [1] was under 3.16 µM; in assay [2], 3.24 to 31.6 µM; in assay [3] it was under 3.16 µM; in assay [4], 3.24 to 31.6 µM.
For the compound `CC1(C)CCC(O)(c2cc(Cl)cc3[nH]ncc23)CC1` [Compound 427], the IC50 in assay [1] is 3.24 to 31.6 µM; in assay [2] it was over 100 µM; in assay [3], under 3.16 µM; in assay [4], over 100 µM.
Consider `CC(=O)N1CC2(CCN(c3cc(Cl)cc4[nH]ncc34)CC2)C1` [Compound 359], for which the IC50 is under 3.16 µM in assay [1], 3.24 to 31.6 µM in assay [2], under 3.16 µM in assay [3] and 3.24 to 31.6 µM in assay [4].
For the compound `O=S(=O)(C1CC1)N1CCN(c2cccc3[nH]ncc23)CC1` [Compound 19], the IC50 in assay [1] was 3.24 to 31.6 µM; in assay [2], over 100 µM; in assay [3] it was 3.24 to 31.6 µM; in assay [4], 32.4 to 100 µM.
Consider `CC1(C)CN(c2cc(Cl)cc3[nH]ncc23)CCC1NS(C)(=O)=O` (stereo not shown) [Compound 336], for which the IC50 is under 3.16 µM in assay [1], 3.24 to 31.6 µM in assay [2], under 3.16 µM in assay [3] and 3.24 to 31.6 µM in assay [4].
Regarding `Clc1cc(N2CCC(N3CCOCC3)CC2)c2cn[nH]c2c1` [Compound 451], the IC50 in assay [1] is under 3.16 µM; in assay [2], 32.4 to 100 µM; in assay [3] it was under 3.16 µM; in assay [4], over 100 µM.
Regarding `CS(=O)(=O)c1ccc(Oc2cc(Cl)cc3[nH]ncc23)cc1` [Compound 368], the IC50 was 3.24 to 31.6 µM in assay [1], over 100 µM in assay [2], 3.24 to 31.6 µM in assay [3] and 3.24 to 31.6 µM in assay [4].
Consider `Cn1cc(-c2cc(Cl)cc3[nH]ncc23)cn1` [Compound 366], for which the IC50 was 3.24 to 31.6 µM in assay [1], over 100 µM in assay [2], under 3.16 µM in assay [3] and 3.24 to 31.6 µM in assay [4].
Regarding `O=C1CN(c2cc(Cl)cc3[nH]ncc23)CCN1` [Compound 318], the IC50 in assay [1] is 3.24 to 31.6 µM; in assay [2], over 100 µM; in assay [3], 3.24 to 31.6 µM; in assay [4] it was over 100 µM.
On to `CS(=O)(=O)NC1CN(c2cc(Cl)cc3[nH]ncc23)C1` [Compound 431], for which the IC50 in assay [1] was under 3.16 µM; in assay [2], under 3.16 µM; in assay [3], under 3.16 µM; in assay [4], over 100 µM.
For `Cc1nc2c(n1C)CN(c1cc(C(F)(F)F)cc3[nH]ncc13)CC2` [Compound 357], the IC50 in assay [1] is 3.24 to 31.6 µM; in assay [2], over 100 µM; in assay [3], under 3.16 µM; in assay [4] it was under 3.16 µM.
`O=C1CCC2(CCN(c3cc(Cl)cc4[nH]ncc34)CC2)N1` [Compound 215]: the IC50 was under 3.16 µM in assay [1], 3.24 to 31.6 µM in assay [2], under 3.16 µM in assay [3] and 3.24 to 31.6 µM in assay [4].
Consider `COC(=O)CN1CCN(c2cc(Cl)cc3[nH]ncc23)CC1(C)C` [Compound 414], for which the IC50 in assay [1] is under 3.16 µM; in assay [2] it was 32.4 to 100 µM; in assay [3], under 3.16 µM; in assay [4], over 100 µM.
With `CS(=O)(=O)N1CCC(c2cc(C(F)F)cc3[nH]ncc23)CC1` [Compound 387], the IC50 in assay [1] was under 3.16 µM; in assay [2], 3.24 to 31.6 µM; in assay [3], under 3.16 µM; in assay [4], 3.24 to 31.6 µM.
Turning to `O=C1NC2(CCN(c3cc(Cl)cc4[nH]ncc34)CC2)C(=O)N1CC1CCCCC1` [Compound 389], the IC50 in assay [1], in assay [2], in assay [3] and in assay [4] was under 3.16 µM throughout.
In the case of `Clc1cc(N2CCC(c3nccs3)CC2)c2cn[nH]c2c1` [Compound 313], the IC50 in assay [1] is under 3.16 µM; in assay [2] it was 3.24 to 31.6 µM; in assay [3], under 3.16 µM; in assay [4], 3.24 to 31.6 µM.
On to `CC(=O)N(C)c1cc(C2CCN(S(C)(=O)=O)CC2)c2cn[nH]c2c1` [Compound 337], for which the IC50 in assay [1] is over 100 µM; in assay [2] it was over 100 µM; in assay [3], over 100 µM; in assay [4] it was 3.24 to 31.6 µM.
For the compound `CC(=O)N1CCC2(CC1)CN(c1cc(Cl)cc3[nH]ncc13)C2` [Compound 452], the IC50 in assay [1] was under 3.16 µM; in assay [2] it was over 100 µM; in assay [3] it was under 3.16 µM; in assay [4] it was under 3.16 µM.
Take `CC(=O)N1CCC2(CC1)CCN(c1cc(Cl)cc3[nH]ncc13)CC2` [Compound 352]: the IC50 in assay [1] was under 3.16 µM; in assay [2] it was 3.24 to 31.6 µM; in assay [3], under 3.16 µM; in assay [4], under 3.16 µM.
With `CC1(C)CN(c2cc(OC(F)(F)F)cc3[nH]ncc23)CCN1S(C)(=O)=O` [Compound 219], the IC50 is under 3.16 µM in assay [1], 3.24 to 31.6 µM in assay [2], under 3.16 µM in assay [3] and 3.24 to 31.6 µM in assay [4].
`CS(=O)(=O)N1CCOC2(CCN(c3cc(Cl)cc4[nH]ncc34)CC2)C1` [Compound 398]: the IC50 is under 3.16 µM in assay [1], over 100 µM in assay [2], under 3.16 µM in assay [3] and over 100 µM in assay [4].
On to `CC(=O)Nc1ccc(C2CCN(c3cc(Cl)cc4[nH]ncc34)CC2)cc1` [Compound 441], for which the IC50 in assay [1] was under 3.16 µM; in assay [2], over 100 µM; in assay [3], under 3.16 µM; in assay [4], under 3.16 µM.
On to `CC(=O)NCC1CCCN(c2cc(Cl)cc3[nH]ncc23)C1` (stereo not shown) [Compound 283], for which the IC50 was under 3.16 µM in assay [1], over 100 µM in assay [2], 3.24 to 31.6 µM in assay [3] and 3.24 to 31.6 µM in assay [4].
Take `CC(=O)NCCN1CCN(c2cc(Cl)cc3[nH]ncc23)CC1` [Compound 379]: the IC50 is under 3.16 µM in assay [1], over 100 µM in assay [2], under 3.16 µM in assay [3] and over 100 µM in assay [4].
On to `Cc1cc(C2CCN(S(C)(=O)=O)CC2)c2cn[nH]c2c1` [Compound 30], for which the IC50 was under 3.16 µM in assay [1], under 3.16 µM in assay [2], under 3.16 µM in assay [3] and 3.24 to 31.6 µM in assay [4].
For the compound `CC(=O)N(C)c1cc(N2CCN(S(C)(=O)=O)CC2)c2cn[nH]c2c1` [Compound 213], the IC50 is over 100 µM in assay [1], over 100 µM in assay [2], 32.4 to 100 µM in assay [3] and 32.4 to 100 µM in assay [4].

These data come from patent publication US10590086B2, “Pharmaceutical compound” (IOmet Pharma Ltd., priority 2014, dated 2020).
